Test results from patent US20190375708A1 (VenatoRx Pharmaceuticals, Inc., priority 2018, published 2019).

Columns and labels:
[1] = In vitro cytotoxicity assay (MTT cell viability) in HepG2 cells; format: cell-based, human; settings: human
Outline: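 CC50 values reflect loss of HepG2 viability after a 7-day exposure at 37 °C, 5% CO2. After 3-4 h with MTT, solubilized formazan was quantified at 492 nm relative to vehicle wells.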

[2] = tested on: HBV replication in HepAD38 cells; test: Anti-HBV replication assay in HepAD38 cells (QPCR of extracellular HBV DNA); format: cell-based, HBV (genotype D, serotype ayw); settings: Hepatitis B virus, 168 h, 7 days incubation, extracellular HBV DNA by QPCR, read-out: Anti-HBV EC50
Outline: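 Tet-off HepAD38, 7-day compound exposure ([…], 1 log10 steps, DMSO vehicle), 37 °C. Extracellular HBV DNA by QPCR, copies/mL via standard curve, % inhibition vs vehicle, EC50 by 4-parameter regression. Entecavir as positive control.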

| Compound | CC50 at 7 days [1] [µM] | EC50 [2] [µM] |
| --- | --- | --- |
| CO[C@H]1CC[C@H](NC(=O)C(=O)c2c(C)c(C(=O)Nc3ccc(F)c(C)c3)c(C)n2C)CC1 [Example 269, N-(4-fluoro-3-methylphenyl)-5-(2-(((1r,4r)-4-methoxycyclohexyl)amino)-2-oxoacetyl)-1,2,4-trimethyl-1H-pyrrole-3-carboxamide] | 5 to 30 | < 0.05 |
| Cc1cc(NC(=O)c2c(C)c(C(=O)C(=O)NCCN3CCOCC3)n(C)c2C)ccc1F [Example 270, N-(4-fluoro-3-methylphenyl)-1,2,4-trimethyl-5-(2-((2-morpholinoethyl)amino)-2-oxoacetyl)-1H-pyrrole-3-carboxamide] | > 30 | < 0.05 |
| Cc1c(C(=O)Nc2ccnc(F)c2)c(C)n(C)c1C(=O)C(=O)NC1(C(F)(F)F)CCOCC1 [Example 271, N-(2-fluoropyridin-4-yl)-1,2,4-trimethyl-5-(2-oxo-2-((4-(trifluoromethyl)tetrahydro-2H-pyran-4-yl)amino)acetyl)-1H-pyrrole-3-carboxamide] | > 30 | < 0.05 |
| Cc1c(C(=O)Nc2ccnc(F)c2)c(C)n(C)c1C(=O)C(=O)NC1CCSCC1 [Example 272, N-(2-fluoropyridin-4-yl)-1,2,4-trimethyl-5-(2-oxo-2-((tetrahydro-2H-thiopyran-4-yl)amino)acetyl)-1H-pyrrole-3-carboxamide] | > 30 | < 0.05 |
| Cc1cc(NC(=O)c2c(C)c(C(=O)C(=O)N[C@]3(C)CC[C@@H](O)CC3)n(C)c2C)ccc1F [Example 273, N-(4-fluoro-3-methylphenyl)-5-(2-(((1r,4r)-4-hydroxy-1-methylcyclohexyl)amino)-2-oxoacetyl)-1,2,4-trimethyl-1H-pyrrole-3-carboxamide] | > 30 | < 0.05 |
| Cc1c(C(=O)Nc2ccnc(F)c2)c(C)n(C)c1C(=O)C(=O)N[C@@H](C)C(F)(F)F [Example 274, (S)-N-(2-fluoropyridin-4-yl)-1,2,4-trimethyl-5-(2-oxo-2-((1,1,1-trifluoropropan-2-yl)amino)acetyl)-1H-pyrrole-3-carboxamide] | > 30 | < 0.05 |
| C#CCNC(=O)C(=O)c1c(C)c(C(=O)Nc2ccc(F)c(C)c2)c(C)n1C [Example 275, N-(4-fluoro-3-methylphenyl)-1,2,4-trimethyl-5-(2-oxo-2-(prop-2-yn-1-ylamino)acetyl)-1H-pyrrole-3-carboxamide] | > 30 | < 0.05 |
| Cc1cc(NC(=O)c2c(C)c(C(=O)C(=O)Nc3ccccn3)n(C)c2C)ccc1F [Example 276, N-(4-fluoro-3-methylphenyl)-1,2,4-trimethyl-5-(2-oxo-2-(pyridin-2-ylamino)acetyl)-1H-pyrrole-3-carboxamide] | > 30 | < 0.05 |
| Cc1cc(NC(=O)c2c(C)c(C(=O)C(=O)NC3(C)CCOCC3)n(C)c2C)ccc1F [Example 277, N-(4-fluoro-3-methylphenyl)-1,2,4-trimethyl-5-(2-((4-methyltetrahydro-2H-pyran-4-yl)amino)-2-oxoacetyl)-1H-pyrrole-3-carboxamide] | > 30 | < 0.05 |
| Cc1cc(NC(=O)c2c(C)c(C(=O)C(=O)NC3(C(F)(F)F)CCOC3)n(C)c2C)ccc1F (centres unmarked) [Example 278, N-(4-fluoro-3-methylphenyl)-1,2,4-trimethyl-5-(2-oxo2-((3-(trifluoromethyl)tetrahydrofuran-3-yl)amino)acetyl)-1H-pyrrole-3-carboxamide] | > 30 | < 0.05 |
| Cc1cc(NC(=O)c2c(C)c(C(=O)C(=O)N[C@H]3CC[C@@H](C(=O)O)CC3)n(C)c2C)ccc1F [Example 279, (1s,4s)-4-(2-(4-((4-fluoro-3-methylphenyl)carbamoyl)-1,3,5-trimethyl-1H-pyrrol-2-yl)-2-oxoacetamido)cyclohexane-1-carboxylic acid] | > 30 | 0.05 to 0.499 |
| Cc1cc(NC(=O)c2c(C)c(C(=O)C(=O)NC3CCOCC3(C)C)n(C)c2C)ccc1F (centres unmarked) [Example 281] | 5 to 30 | < 0.05 |
| Cc1cc(NC(=O)c2c(C)c(C(=O)C(=O)N[C@]3(C(F)(F)F)CC[C@H](O)CC3)n(C)c2C)ccc1F [Example 282, N-(4-fluoro-3-methylphenyl)-5-(2-(((1s,4s)-4-hydroxy-1-(trifluoromethyl)cyclohexyl)amino)-2-oxoacetyl)-1,2,4-trimethyl-1H-pyrrole-3-carboxamide] | > 30 | < 0.05 |
| Cc1cc(NC(=O)c2c(C)c(C(=O)C(=O)N[C@H]3CC[C@@H](C#N)CC3)n(C)c2C)ccc1F [Example 283] | 5 to 30 | < 0.05 |
| CCn1c(C)c(C(=O)Nc2ccc(F)c(C)c2)c(C)c1C(=O)C(=O)N[C@H]1CC[C@@H](O)CC1 [Example 284, 1-ethyl-N-(4-fluoro-3-methylphenyl)-5-(2-(((1s,4s)-4-hydroxycyclohexyl)amino)-2-oxoacetyl)-2,4-dimethyl-1H-pyrrole-3-carboxamide] | > 30 | < 0.05 |
| CCn1c(C)c(C(=O)Nc2ccc(F)c(C)c2)c(C)c1C(=O)C(=O)NC1(C(F)(F)F)CCOCC1 [Example 285, 1-ethyl-N-(4-fluoro-3-methylphenyl)-2,4-dimethyl-5-(2-oxo-2-((4-(trifluoromethyl)tetrahydro-2H-pyran-4-yl)amino)acetyl)-1H-pyrrole-3-carboxamide] | > 30 | < 0.05 |
| Cc1cc(NC(=O)c2c(C)c(C(=O)C(=O)NC3CCNC(=O)C3)n(C)c2C)ccc1F (centres unmarked) [Example 286, N-(4-fluoro-3-methylphenyl)-1,2,4-trimethyl-5-(2-oxo-2-((2-oxopiperidin-4-yl)amino)acetyl)-1H-pyrrole-3-carboxamide] | > 30 | < 0.05 |
| Cc1cc(NC(=O)c2c(C)c(C(=O)C(=O)N[C@@H]3CCC[C@@H](O)C3)n(C)c2C)ccc1F [Example 287, N-(4-fluoro-3-methylphenyl)-5-(2-(((1R,3R)-3-hydroxycyclohexyl)amino)-2-oxoacetyl)-1,2,4-trimethyl-1H-pyrrole-3-carboxamide] | > 30 | < 0.05 |
| Cc1cc(NC(=O)c2c(C)c(C(=O)C(=O)NC3(C(F)(F)F)CC(O)C3)n(C)c2C)ccc1F (centres unmarked) [Example 288, N-(4-fluoro-3-methylphenyl)-5-(2-((3-hydroxy-1-(trifluoromethyl)cyclobutyl)amino)-2-oxoacetyl)-1,2,4-trimethyl-1H-pyrrole-3-carboxamide] | > 30 | < 0.05 |
| Cc1cc(NC(=O)c2c(C)c(C(=O)C(=O)N[C@H](C)C(F)(F)F)n(C)c2C)ccc1F [Example 289, (R)-N-(4-fluoro-3-methylphenyl)-1,2,4-trimethyl-5-(2-oxo-2-((1,1,1-trifluoropropan-2-yl)amino)acetyl)-1H-pyrrole-3-carboxamide] | 5 to 30 | < 0.05 |
| Cc1cc(NC(=O)c2c(C)c(C(=O)C(=O)NC(C)CN3CCOCC3)n(C)c2C)ccc1F (centres unmarked) [Example 290, N-(4-fluoro-3-methylphenyl)-1,2,4-trimethyl-5-(2-((1-morpholinopropan-2-yl)amino)-2-oxoacetyl)-1H-pyrrole-3-carboxamide] | > 30 | < 0.05 |
| Cc1cc(NC(=O)c2c(C)c(C(=O)C(=O)NC(C)(C)CN3CCOCC3)n(C)c2C)ccc1F [Example 291, N-(4-fluoro-3-methylphenyl)-1,2,4-trimethyl-5-(2-((2-methyl-1-morpholinopropan-2-yl)amino)-2-oxoacetyl)-1H-pyrrole-3-carboxamide] | > 30 | < 0.05 |
| Cc1cc(NC(=O)c2c(C)c(C(=O)C(=O)NCCN3CCC(O)CC3)n(C)c2C)ccc1F [Example 292, N-(4-fluoro-3-methylphenyl)-5-(2-((2-(4-hydroxypiperidin-1-yl)ethyl)amino)-2-oxoacetyl)-1,2,4-trimethyl-1H-pyrrole-3-carboxamide] | > 30 | 0.05 to 0.499 |
| Cc1c(C(=O)Nc2ccc(F)c(F)c2)c(C)n(C)c1C(=O)C(=O)Nc1ccc(F)c(F)c1 [Example 293, N-(3,4-difluorophenyl)-5-(2-((3,4-difluorophenyl)amino)-2-oxoacetyl)-1,2,4-trimethyl-1H-pyrrole-3-carboxamide] | 5 to 30 | < 0.05 |
| Cc1c(C(=O)Nc2ccc(F)c(F)c2)c(C)n(C)c1C(=O)C(=O)Nc1ccccn1 [Example 294, N-(3,4-difluorophenyl)-1,2,4-trimethyl-5-(2-oxo-2-(pyridin-2-ylamino)acetyl)-1H-pyrrole-3-carboxamide] | > 30 | 0.5 to 1 |
| Cc1c(C(=O)Nc2ccc(F)c(F)c2)c(C)n(C)c1C(=O)C(=O)Nc1ccc(F)cn1 [Example 295, N-(3,4-difluorophenyl)-5-(2-((5-fluoropyridin-2-yl)amino)-2-oxoacetyl)-1,2,4-trimethyl-1H-pyrrole-3-carboxamide] | 5 to 30 | < 0.05 |
| Cc1c(C(=O)Nc2ccc(F)c(F)c2)c(C)n(C)c1C(=O)C(=O)Nc1cccnc1 [Example 296, N-(3,4-difluorophenyl)-1,2,4-trimethyl-5-(2-oxo-2-(pyridin-3-ylamino)acetyl)-1H-pyrrole-3-carboxamide] | > 30 | < 0.05 |
| Cc1c(C(=O)Nc2ccc(F)c(F)c2)c(C)n(C)c1C(=O)C(=O)Nc1ccc(F)nc1 [Example 297, N-(3,4-difluorophenyl)-5-(2-((6-fluoropyridin-3-yl)amino)-2-oxoacetyl)-1,2,4-trimethyl-1H-pyrrole-3-carboxamide] | 5 to 30 | < 0.05 |
